Numbers after ± are expanded uncertainties.
What was measured:
[1] = xn = mol fraction of the nth substance listed; conditions: 100 kPa, Liquid; for speed of sound: Frequency=3 MHz, Sing-around technique in a fixed-path interferometer; for mass density: Vibrating tube method
[2] = excess molar enthalpy (molar enthalpy of mixing); xn = mol fraction of the nth substance listed; conditions: 298.15 K, 100 kPa, Liquid, Power-compensation calorimetry

CCCCn1cc[n+](C)c1C.F[B-](F)(F)F [1-butyl-2,3-dimethylimidazolium tetrafluoroborate] + CCCCn1cc[n+](C)c1.F[B-](F)(F)F
[1]
Conditions | mass density, 293.15 K [kg/m3] | mass density, 298.15 K [kg/m3] | mass density, 303.15 K [kg/m3] | mass density, 308.15 K [kg/m3] | speed of sound, 293.15 K [m/s] | speed of sound, 298.15 K [m/s] | speed of sound, 303.15 K [m/s] | speed of sound, 308.15 K [m/s]
x1 = 0.0917 | 1198.6 ± 2.1 | 1195.3 ± 2.1 | 1192.4 ± 2.1 | 1189.4 ± 2.1 | 1587.2 ± 1.7 | 1574.1 ± 1.7 | 1562.2 ± 1.7 | 1550 ± 1.7
x1 = 0.1281 | 1197.1 ± 2.1 | 1194 ± 2 | 1191.4 ± 2 | 1188.6 ± 2 | 1590.7 ± 1.7 | 1577.4 ± 1.7 | 1565.4 ± 1.7 | 1553.1 ± 1.7
x1 = 0.1633 | 1195.8 ± 2 | 1193 ± 2 | 1190.4 ± 2 | 1187.9 ± 2 | 1594 ± 1.7 | 1580.6 ± 1.7 | 1568.4 ± 1.7 | 1556 ± 1.7
x1 = 0.2059 | 1194.4 ± 2 | 1191.8 ± 2 | 1189.5 ± 2 | 1187.1 ± 2 | 1597.8 ± 1.7 | 1584.3 ± 1.7 | 1572 ± 1.7 | 1559.5 ± 1.7
x1 = 0.2455 | 1193.3 ± 2 | 1190.9 ± 2 | 1188.6 ± 2 | 1186.4 ± 2 | 1601.3 ± 1.7 | 1587.7 ± 1.7 | 1575.3 ± 1.7 | 1562.7 ± 1.7
x1 = 0.2967 | 1192.2 ± 2 | 1189.9 ± 2 | 1187.8 ± 2 | 1185.7 ± 2 | 1605.7 ± 1.7 | 1591.9 ± 1.7 | 1579.5 ± 1.7 | 1566.8 ± 1.7
x1 = 0.3424 | 1191.3 ± 2 | 1189.2 ± 2 | 1187.1 ± 2 | 1185.2 ± 2 | 1609.5 ± 1.6 | 1595.7 ± 1.6 | 1583.1 ± 1.6 | 1570.4 ± 1.6
x1 = 0.3974 | 1190.6 ± 2 | 1188.6 ± 2 | 1186.6 ± 2 | 1184.8 ± 2 | 1613.9 ± 1.6 | 1600.1 ± 1.6 | 1587.4 ± 1.6 | 1574.6 ± 1.6
x1 = 0.4496 | 1190.2 ± 2 | 1188.3 ± 2 | 1186.3 ± 2 | 1184.6 ± 2 | 1618.1 ± 1.6 | 1604.1 ± 1.6 | 1591.5 ± 1.6 | 1578.6 ± 1.6
x1 = 0.4997 | 1190 ± 2 | 1188.2 ± 2 | 1186.2 ± 2 | 1184.5 ± 2 | 1622 ± 1.6 | 1608 ± 1.6 | 1595.2 ± 1.6 | 1582.4 ± 1.6
x1 = 0.5418 | 1190 ± 2 | 1188.2 ± 2 | 1186.2 ± 2 | 1184.5 ± 2 | 1625.2 ± 1.6 | 1611.2 ± 1.6 | 1598.4 ± 1.6 | 1585.5 ± 1.6
x1 = 0.5941 | 1190.1 ± 2 | 1188.3 ± 2 | 1186.4 ± 2 | 1184.7 ± 2 | 1629.1 ± 1.6 | 1615.1 ± 1.6 | 1602.2 ± 1.6 | 1589.4 ± 1.6
x1 = 0.6398 | 1190.3 ± 2 | 1188.5 ± 2 | 1186.7 ± 2 | 1184.9 ± 2 | 1632.5 ± 1.6 | 1618.5 ± 1.6 | 1605.6 ± 1.6 | 1592.9 ± 1.6
x1 = 0.6873 | 1190.6 ± 2 | 1188.9 ± 2 | 1187 ± 2 | 1185.3 ± 2 | 1636 ± 1.6 | 1622 ± 1.6 | 1609.1 ± 1.6 | 1596.3 ± 1.6
x1 = 0.7388 | 1191 ± 2 | 1189.3 ± 2 | 1187.4 ± 2 | 1185.7 ± 2 | 1639.9 ± 1.6 | 1625.9 ± 1.6 | 1612.9 ± 1.6 | 1600.1 ± 1.6
x1 = 0.7963 | 1191.6 ± 2 | 1189.9 ± 2 | 1187.9 ± 2 | 1186.1 ± 2 | 1644.1 ± 1.6 | 1630.1 ± 1.6 | 1617.1 ± 1.6 | 1604.4 ± 1.6
x1 = 0.8482 | 1192.1 ± 2 | 1190.4 ± 2 | 1188.4 ± 2 | 1186.5 ± 2 | 1648 ± 1.6 | 1634 ± 1.6 | 1621 ± 1.6 | 1608.4 ± 1.6
x1 = 0.8903 | 1192.6 ± 2 | 1190.8 ± 2 | 1188.7 ± 2 | 1187 ± 2 | 1651.2 ± 1.6 | 1637.2 ± 1.5 | 1624.2 ± 1.5 | 1611.4 ± 1.5
x1 = 1 | 1193.5 ± 2 | 1191.8 ± 2 | 1189.7 ± 2 | 1187.9 ± 2 | 1659.7 ± 1.5 | 1645.7 ± 1.5 | 1632.5 ± 1.5 | 1619.8 ± 1.5

[2]
Conditions | excess molar enthalpy [kcal/mol]
x1 = 0.0861 | 0.00327 ± 0.000215
x1 = 0.1386 | 0.00523 ± 0.000239
x1 = 0.1972 | 0.00734 ± 0.000263
x1 = 0.2455 | 0.00889 ± 0.000287
x1 = 0.2945 | 0.0104 ± 0.000311
x1 = 0.3428 | 0.0114 ± 0.000335
x1 = 0.3917 | 0.0121 ± 0.000359
x1 = 0.4457 | 0.0125 ± 0.000359
x1 = 0.5019 | 0.0125 ± 0.000359
x1 = 0.5637 | 0.0117 ± 0.000335
x1 = 0.6097 | 0.0109 ± 0.000335
x1 = 0.6637 | 0.00963 ± 0.000311
x1 = 0.7076 | 0.00858 ± 0.000287
x1 = 0.7611 | 0.00691 ± 0.000263
x1 = 0.8042 | 0.00564 ± 0.000239
x1 = 0.8462 | 0.00437 ± 0.000215
x1 = 0.8827 | 0.00325 ± 0.000215
x1 = 0.9144 | 0.0023 ± 0.000203

Source: the NIST ThermoML archive (doi:10.1016/j.jct.2016.08.010)
